Measurements published in patent US20250067726A1, “METHOD FOR ANALYZING PERSONALIZED ANTI-CANCER DRUGS IN CELL CULTURES” (PreComb Therapeutics AG, priority 2022, published 2025).
Where two headings read alike, the source gives them in different places.

What was measured:
[1] = Pharmacokinetic parameters (t1/2, Cmax, tmax) identified for the drug panel; settings: human, in vivo; Table 1, twice the half-life, main determinant for in vitro incubation time
Text: The elimination half-life or drug half-life tin generally refers to the time required for half the dose of drug administered to be removed from the body. For those drugs to be tested, where a suitable tin can not be taken from the literature, and/or for the purpose of grouping or forming panels of drugs, tin values may be determined as follows.
In accordance with the existing guidelines, the rate (Cmax, tmax) and extent (AUC) of absorption of drug from a test formulation (vs. reference formulation) is evaluated using a single dose study in healthy volunteer subjects, followed by measuring the blood/plasma concentration of the parent drug and any major active metabolites (if present) for a time period of ≥3 t½.
For a determination of the parameters, blood samples are taken at 0, 1, 2, 3, 4, 5, 6, 7, and 8 hours, optionally followed by 10 and 12, 18, 24, 30, 36, and 42 hours after administration. As a general rule, the more frequently samples around the expected time of the maximum concentration are taken, the more accurate the value of t½ (and tmax and Cmax) are. The above determinations can be made in several individuals, and median values can be determined as parameter e.g. for grouping (see below), and testing.
Grouping or pre-selection of drugs can be achieved based on one or more of the following parameters that are known to the person of skill: • i) Cmax—the value defining the maximal concentration used, • ii) t½, —time until 1/2 of the drug is cleared by the patient/cells (half-life), • iii) Duration of action [h] (length of time that particular drug is effective), • iv) Elimination time [h] (time it takes for the concentration of the drug in the plasma or the total amount in the body to be removed), • v) Area under the curve (AUC) [ng*h/ml], • vi) Clearance (CL) [L/h]

[2] = cited from earlier work; for Cmax Human: Table 2, human
[3] = test system: Panc-1 cancer cells and NIH3T3 fibroblasts microtumor; test: Redosing example: pancreatic cancer microtumor model, drug response; assay type: cell-based; settings: dosed once for 7 h or re-dosed for another 7 h with 48 h recovery in between; four independent experiments
Procedure: (§1) A pancreatic cancer microtumor model consisting of Panc-1 cancer cells and NIH3T3 fibroblasts were treated with either Gemcitabine or 5-Flurouracil. Both drugs were dosed either once for 7 hours or re-dosed for another 7 h with a 48 h recovery time in between (four independent experiments).
as §1, with “(GEM) and/or 5-Flurouracil (5-FU).” for “or 5-Flurouracil.”

| twice the half-life (2 × t1/2) [1] [h] | SMILES | t1/2 ([2]; Table 1, elimination half-life) [h] | Cmax Human [2] [ng/mL] | t1/2 ([2]; Table 2) [h] | tmax ([2]; Table 2) [h] | Efficiency on redosing versus single dosing [3] |
| --- | --- | --- | --- | --- | --- | --- |
| 0.6 | O=c1[nH]cc(F)c(=O)[nH]1 [Fluorouracil] | 0.3 | – | – | – | did not improve |
| 0.46 | Nc1ccn([C@@H]2O[C@H](CO)[C@@H](O)C2(F)F)c(=O)n1 [Gemcitabine] | 0.23 | 18500 | 0.23 | – | increased efficiency |
| 23.8 | O=C(c1cc(Cc2n[nH]c(=O)c3ccccc23)ccc1F)N1CCN(C(=O)C2CC2)CC1 [Olaparib] | 11.9 | 5800 | 11.9 | 1.3 | – |
| 8.8 | Nc1nc2[nH]cc(CCc3ccc(C(=O)N[C@@H](CCC(=O)O)C(=O)O)cc3)c2c(=O)[nH]1 [Pemetrexed] | 4.4 | 90000 to 150000 | 4.4 | – | – |
| 9.6 | CC(=O)Nc1cccc(-n2c(=O)n(C3CC3)c(=O)c3c(Nc4ccc(I)cc4F)n(C)c(=O)c(C)c32)c1 [Trametinib] | 4.8 | 22 | 4.35 | – | – |

The next lines start with the compound.

| SMILES | twice the half-life (2 × t1/2) [1] [h] | t1/2 ([2]; Table 1, elimination half-life) [h] | Cmax Human [2] [ng/mL] | t1/2 ([2]; Table 2) [h] | tmax ([2]; Table 2) [h] | Efficiency on redosing versus single dosing [3] |
| --- | --- | --- | --- | --- | --- | --- |
| CC(=O)O[C@@]12CO[C@@H]1C[C@H](O)[C@@]1(C)C(=O)[C@H](O)C3=C(C)[C@@H](OC(=O)[C@H](O)[C@@H](NC(=O)OC(C)(C)C)c4ccccc4)C[C@@](O)([C@@H](OC(=O)c4ccccc4)[C@H]21)C3(C)C [Docetaxel] | 82 | 41 | 1500 to 2500 | 41 | – | – |
| C#Cc1cccc(Nc2ncnc3cc(OCCOC)c(OCCOC)cc23)c1 [Erlotinib] | 48.8 | – | 2300 | – | 5.5 | – |
| O=C1[O][Pt]2([NH][C@@H]3CCCC[C@H]3[NH]2)[O]C1=O [Oxaliplatin] | – | – | 1200 | 1.86 | – | – |
